{
  "source": "patent US9314019B2",
  "about": "“Snout beetle attractant” (priority 2011, dated 2016)",
  "system": "snout beetles",
  "assay": "Field test of individual odorants in yellow Delta traps",
  "assay_type": "in vivo, Eremnus setulosus and/or Phlyctinus calosus",
  "conditions": "for Numbers of snout beetles caught in yellow Delta traps, Mean: mean of six replications, traps collected after one week; for Numbers of snout beetles caught in yellow Delta traps, Rep. 1: replication 1; for Numbers of snout beetles caught in yellow Delta traps, Rep. 1 / Numbers of snout beetles caught in yellow Delta traps, Rep. 2 / Numbers of snout beetles caught in yellow Delta traps, Rep. 3 / Numbers of snout beetles caught in yellow Delta traps, Rep. 4 / Numbers of snout beetles caught in yellow Delta traps, Rep. 5 / Numbers of snout beetles caught in yellow Delta traps, Rep. 6: traps at ground level against apple tree trunks, collected after one week; for Numbers of snout beetles caught in yellow Delta traps, Rep. 2: replication 2; for Numbers of snout beetles caught in yellow Delta traps, Rep. 3: replication 3; for Numbers of snout beetles caught in yellow Delta traps, Rep. 4: replication 4; for Numbers of snout beetles caught in yellow Delta traps, Rep. 5: replication 5; for Numbers of snout beetles caught in yellow Delta traps, Rep. 6: replication 6",
  "from_the_text": "Yellow Delta traps fitted with bottom sticky pads upon which odorant dispensers of the various test odorants were applied, were placed on ground level against the trunks of bearing apple trees in the Koue Bokkeveld area in the Western Cape Province, South Africa. Test orchards infested with snout beetles were selected on the farms Dennekruin and Voorsorg in the Ceres-Koue-Bokkeveld area.\nUnloaded or “blank” traps with no odorants, but identical to the other traps in all other respects, were used as a control. There are no attractants registered for use on snout beetles on deciduous fruit in South Africa with which to compare the experimental results.\nAfter one week the traps were collected and the snout beetles caught were counted and noted. Six replications were used per odorant tested. In Table 1 below the summarised results of the experiments are presented.",
  "data": [
    {"smiles": "O=C(O)C1CC1", "note": "[Cyclopropane carboxylic acid]", "values": [
      {"measurement": "Numbers of snout beetles caught in yellow Delta traps, Mean", "value": 7.8},
      {"measurement": "Numbers of snout beetles caught in yellow Delta traps, Rep. 1", "value": 6},
      {"measurement": "Numbers of snout beetles caught in yellow Delta traps, Rep. 2", "value": 7},
      {"measurement": "Numbers of snout beetles caught in yellow Delta traps, Rep. 3", "value": 5},
      {"measurement": "Numbers of snout beetles caught in yellow Delta traps, Rep. 4", "value": 7},
      {"measurement": "Numbers of snout beetles caught in yellow Delta traps, Rep. 5", "value": 3},
      {"measurement": "Numbers of snout beetles caught in yellow Delta traps, Rep. 6", "value": 19}
    ]},
    {"smiles": "COC1=C(C)OC(C)C1=O", "note": "(centres unmarked) [2,5-Dimethyl-4-methoxy-3(2H)-furanone]", "values": [
      {"measurement": "Numbers of snout beetles caught in yellow Delta traps, Mean", "value": 3.5},
      {"measurement": "Numbers of snout beetles caught in yellow Delta traps, Rep. 1", "value": 2},
      {"measurement": "Numbers of snout beetles caught in yellow Delta traps, Rep. 2", "value": 4},
      {"measurement": "Numbers of snout beetles caught in yellow Delta traps, Rep. 3", "value": 3},
      {"measurement": "Numbers of snout beetles caught in yellow Delta traps, Rep. 4", "value": 2},
      {"measurement": "Numbers of snout beetles caught in yellow Delta traps, Rep. 5", "value": 3},
      {"measurement": "Numbers of snout beetles caught in yellow Delta traps, Rep. 6", "value": 7}
    ]},
    {"smiles": "COc1cccc(C(C)=O)c1", "note": "[3-Methoxy acetophenone]", "values": [
      {"measurement": "Numbers of snout beetles caught in yellow Delta traps, Mean", "value": 2.5},
      {"measurement": "Numbers of snout beetles caught in yellow Delta traps, Rep. 1", "value": 3},
      {"measurement": "Numbers of snout beetles caught in yellow Delta traps, Rep. 2", "value": 1},
      {"measurement": "Numbers of snout beetles caught in yellow Delta traps, Rep. 3", "value": 6},
      {"measurement": "Numbers of snout beetles caught in yellow Delta traps, Rep. 4", "value": 2},
      {"measurement": "Numbers of snout beetles caught in yellow Delta traps, Rep. 5", "value": 1},
      {"measurement": "Numbers of snout beetles caught in yellow Delta traps, Rep. 6", "value": 2}
    ]},
    {"smiles": "CC(=O)CCC(C)C", "note": "[5-Methyl-2-hexanone]", "values": [
      {"measurement": "Numbers of snout beetles caught in yellow Delta traps, Mean", "value": 2.7},
      {"measurement": "Numbers of snout beetles caught in yellow Delta traps, Rep. 1", "value": 4},
      {"measurement": "Numbers of snout beetles caught in yellow Delta traps, Rep. 2", "value": 1},
      {"measurement": "Numbers of snout beetles caught in yellow Delta traps, Rep. 3", "value": 1},
      {"measurement": "Numbers of snout beetles caught in yellow Delta traps, Rep. 4", "value": 5},
      {"measurement": "Numbers of snout beetles caught in yellow Delta traps, Rep. 5", "value": 3},
      {"measurement": "Numbers of snout beetles caught in yellow Delta traps, Rep. 6", "value": 2}
    ]},
    {"smiles": "COc1ccccc1", "note": "[Anisole]", "values": [
      {"measurement": "Numbers of snout beetles caught in yellow Delta traps, Mean", "value": 2.7},
      {"measurement": "Numbers of snout beetles caught in yellow Delta traps, Rep. 1", "value": 4},
      {"measurement": "Numbers of snout beetles caught in yellow Delta traps, Rep. 2", "value": 1},
      {"measurement": "Numbers of snout beetles caught in yellow Delta traps, Rep. 3", "value": 3},
      {"measurement": "Numbers of snout beetles caught in yellow Delta traps, Rep. 4", "value": 3},
      {"measurement": "Numbers of snout beetles caught in yellow Delta traps, Rep. 5", "value": 2},
      {"measurement": "Numbers of snout beetles caught in yellow Delta traps, Rep. 6", "value": 3}
    ]}
  ]
}
